Laboratory results published in patent publication US20100209407A1, “MC-1R, MC-2R, AND/OR MU OPIOID RECEPTORS MODULATION” (BASF BEAUTY CARE SOLUTIONS FRANCE S.A.S., priority 2007, published 2010).

Experiments:
Format in all cases: cell-based, human
MC-2R [1] = test: Detection of MC-2R protein in keratinocytes after action of active components (electrophoresis, immunodetection, image analysis); details: semi-quantification via image analysis, multiple of control
Procedure: (§1) The cells were cultivated at 37° C. in an atmosphere of 5% CO2 in the K-SFM environment K-SFM (Invitrogen) containing BPF (25 mg), EGF (2.5 μg), and normocin.
(§2) The cells were washed once with PBS solution, and the proteins were extracted at 30 min at 4° C. in lysis solution (Tris 50 mM, NaCl 250 mM, pH 7.5, 1% triton), in the presence of protease inhibitors. The lysates were centrifuged for 15 minutes at 13,000 g. The floaters are diluted with Laemmli solution in the presence of beta mercaptoethanol before electrophoresis.
(§3) For immunodetection, the proteins are separated via electrophoresis in 4-12% SDS-polyacrylamide gel. The proteins were transferred onto a nitrocellulose membrane (Biorad). The membranes are then saturated for one hour at ambient temperature in TBS solution with 3% BSA. The proteins are finally immunodetected after incubation of the primary antibody at 4° C. all night, followed by the secondary antibody coupled with Alexa 488 (invitrogen), 1 hour at ambient temperature.
(§4) The antibodies were used in the following dilution: 5 μg/mL anti-MC-1R, 5 μg/mL anti-MC-2R, and 1/1000 anti-μ opioid R.
(§5) Semi-quantification was carried out via image analysis. The actives are the following and are the subject of table IV.

μ opioid receptor = test: Detection of μ opioid receptor protein in keratinocytes after action of active components (electrophoresis, immunodetection, image analysis); details: semi-quantification via image analysis, multiple of control
Procedure: as §1, §2, §3, §4, §5

MC-1R [2] = test: MC-1R mRNA expression by quantitative RT-PCR in keratinocytes put in contact with actives; details: mRNA relative to actin, multiple of untreated control, 24 hours, 1% plant extracts and biotechnological hydrolysates, 0.01% characterized molecules
Description: (§6) In particular, the extracts are obtained by macerating plants (preferably roots, rhizomes, stems, bark, flowers, fruits, seeds, germs, or leaves) at 1-10% (p/p), usually 1-5% in a solvent or a mixture of solvents, usually a mixture of water and alcohol, glycol, or polyol (such as ethanol, glycerol, butylene glycol and other glycols, xylitol, etc.) 100/0 to 0/100, and preferably in water. The extracts obtained are then filtered or distilled in order to recover the soluble portion, which is then filtered, preferably at 0.45 μm. Biotechnological hydrolysates are obtained via the fermentation of plant extracts in the presence of microorganisms usually from the family of lactic bacteria, in particular bactobacillus plantarum, or paracasei, and bifidobacterium, in particular longum or Saccharomyces. These hydrolysates are then filtered, preferably to 0.45 μm, in order to obtain the active components. […]
(§7) The parameters of amplification have usually been the following: The technique of RT-PCR in real time is conducted with the “Quanti Ted SYBR Green RT-PCR” kit (Qiagen, France) on wells containing mRNA, in an OPTICON thermocycler, which carries out cycles of amplification. […] At the end of each cycle, fluorescence, which is proportional to the number of fragments amplified, is read. […]

μ opioid R [3] = test: μ opioid R mRNA expression by quantitative RT-PCR in keratinocytes put in contact with actives; details: mRNA relative to actin, multiple of untreated control, 24 hours, 1% plant extracts and biotechnological hydrolysates, 0.01% characterized molecules
Description: as §6, §7

POMC [4] = test: POMC mRNA expression by quantitative RT-PCR in keratinocytes put in contact with actives; details: mRNA relative to actin, multiple of untreated control, 24 hours, 1% plant extracts and biotechnological hydrolysates, 0.01% characterized molecules
Description: as §6, §7

MC-2R [5] = test: MC-2R mRNA expression by quantitative RT-PCR in keratinocytes put in contact with actives; details: mRNA relative to actin, multiple of untreated control, 24 hours, 1% plant extracts and biotechnological hydrolysates, 0.01% characterized molecules
Description: as §6, §7

POMC [6] = test: POMC mRNA expression by quantitative RT-PCR in melanocytes put in contact with actives; details: mRNA relative to actin, multiple of untreated control, 24 hours, same conditions as Example 3
Procedure: The active components are tested for keratinocytes after dissolution in the culturing environment: usually between 0.1% and 2% (v/v) for plants and biotechnological hydrolysates and in particular from 0.5% to 1% and usually between 0.001% and 0.01% for characterized molecules. The present results are obtained with 1% in the culturing environment for plant extracts and biotechnological hydrolysates, and with 0.01% for characterized molecules.
After the contact time of the actives with the cells, for example 24 hours, the environments are eliminated and the cells conserved, for example by freeze-drying at −80° C. after a rinsing with 7.4 pH phosphate solution. The total RNA is extracted, for example, using a 96-well extraction kit on silica columns and divided onto a 96-well spectrophotometer at 260 nm (purity indicator: dosage of proteins at 280 nm). The RNA is diluted, for example at 5 ng/μl. […]
as §7

μ opioid R [7] = test: μ opioid R mRNA expression by quantitative RT-PCR in melanocytes put in contact with actives; details: mRNA relative to actin, multiple of untreated control, 24 hours, same conditions as Example 3
MC-1R [8] = test: MC-1R mRNA expression by quantitative RT-PCR in melanocytes put in contact with actives; details: mRNA relative to actin, multiple of untreated control, 24 hours, same conditions as Example 3

SMILES | MC-2R Control X: (MC-2R [1]) [Control X] | μ opioid R Control X: (μ opioid receptor) [Control X] | MC-1R Control X: (MC-1R [2]) [Control X] | μ opioid R Control X: (μ opioid R [3]) [Control X] | POMC Control X: (POMC [4]) [Control X] | MC-2R Control X: (MC-2R [5]) [Control X] | POMC Control X: (POMC [6]) [Control X] | μ opioid R Control X: (μ opioid R [7]) [Control X] | MC-1R Control X: (MC-1R [8]) [Control X]
C/C=C(/C)C(=O)OC1CC2(C)CCC(C(C)C)C2(O)CCC1(C)O (stereo not drawn) [(Z)-decahydro-6,8a-dihydroxy-1-isopropyl-3a,6-dimethylazulen-5-yl 2-methylbut-2-enoate] | 1.99 | 1.37 | 1.0 | 1.0 | 1 | 18.5 | – | – | –
Cc1nc(C(=O)O)cc2c1[nH]c1ccccc12 [1 methyl beta carbolin-3-carboxylic acid] | – | – | – | – | – | – | 3.3 | 1.0 | 1.0
CC1=CC(=O)C2=C(C)CC(OC(=O)Cc3ccccc3)C3C(C)C(=O)OC3C12 (stereo not drawn) [Phenyl-acetic acid 3,6,9-trimethyl-2,7-dioxo-2,3,3a,4,5,7,9a,9b-octahydro-azuleno[4,5-b]furan-4-yl] | 1.96 | 1.66 | 20.0 | 1.0 | 1 | 20.0 | – | – | –
